Measured values taken from article PMC9671780 (Bioorganic Chemistry, 2022).
In brackets after ≈: the same amount, converted by molar mass.

Tests used:
SARS-CoV-2 = assay type: cell-based; settings: for Antiviral Potency Index (API): ratio of % inhibition to that of remdesivir at 10 µM; for SARS-CoV-2 Antiviral Assay (%) inhibition of viral replication: 10 µM
in vitro = settings: African green monkey, Vero E6 Cytotoxicity (IC50), MTT
SARS-CoV-2 M^pro = SARS-CoV-2 M^pro (Severe acute respiratory syndrome coronavirus 2, UniProt P0DTD1); test: biochemical; settings: for IC50: IC50 against SARS-CoV-2 M^pro, Table 1 and text
Vero E6 cells = settings: for IC50: read-out: Vero E6 Cytotoxicity (IC50), MTT
PBS solubility screening = assay type: physicochemical; settings: for Solubility note: PBS; for solubility: phosphate-buffered saline, aqueous buffer, kinetic from dmso stock
[1] = Enzymatic metabolic stability; assay type: in vitro ADME
IL-6 = test: Carrageenan-induced paw edema in rats: serum IL-6; assay type: in vivo, Sprague Dawley Rat; settings: male rats, 100 mg/kg, 6 h after carrageenan
TNF-α = test: Carrageenan-induced paw edema in rats: serum TNF-α; assay type: in vivo, Sprague Dawley Rat; settings: male rats, 100 mg/kg, 6 h after carrageenan

| Structure (SMILES) | Antiviral Potency Index (API) (SARS-CoV-2) | IC50 (in vitro) [µM] | IC50 (SARS-CoV-2 M^pro) [µM] | further results |
| --- | --- | --- | --- | --- |
| Cc1nn(-c2ccc(Cl)cc2)c2c1C(c1ccc(Cl)cc1)C(C#N)=C(N)O2 (stereo not drawn) [Compound 18, 6-Amino-1-(4-chlorophenyl)-4-(4-chlorophenyl)-3-methyl-1,4-dihydropyrano[2,3-c]pyrazole-5-carbonitrile] | 0.74 | 60.5 ± 4.6 | 12.8 ± 0.6 | – |
| Cc1nn(-c2ccc(Cl)cc2)c2c1C(c1ccc(Br)cc1)C(C#N)=C(N)O2 (stereo not drawn) [Compound 19, 6-Amino-4-(4-bromophenyl)-1-(4-chlorophenyl)-3-methyl-1,4-dihydropyrano[2,3-c]pyrazole-5-carbonitrile] | 0.45 | 26.2 ± 20 | 30.9 ± 1.6 | – |
| Cc1nn(-c2ccc(Cl)cc2)c2c1C(c1ccc(I)cc1)C(C#N)=C(N)O2 (stereo not drawn) [Compound 20, 6-Amino-1-(4-chlorophenyl)-4-(4-iodophenyl)-3-methyl-1,4-dihydropyrano[2,3-c]pyrazole-5-carbonitrile] | 0.62 | 103 ± 7.8 | 69.1 ± 3.5 | – |
| COc1ccc(C2C(C#N)=C(N)Oc3c2c(C)nn3-c2ccc(Cl)cc2)cc1 (stereo not drawn) [Compound 21, 6-Amino-1-(4-chlorophenyl)-4-(4-methoxyphenyl)-3-methyl-1,4-dihydropyrano[2,3-c]pyrazole-5-carbonitrile] | 0.49 | 78.1 ± 5.9 | 24.6 ± 1.2 | – |
| Cc1nn(-c2ccc(Cl)cc2)c2c1C(c1ccc(O)cc1)C(C#N)=C(N)O2 (stereo not drawn) [Compound 22, 6-Amino-1-(4-chlorophenyl)-4-(4-hydroxyphenyl)-3-methyl-1,4-dihydropyrano[2,3-c]pyrazole-5-carbonitrile] | – | > 60 | – | IC50 (Vero E6 cells): 67.7 ± 5.2 µM; Mode of binding from kinetic analysis (SARS-CoV-2 M^pro): reversibly and non-competitively with non-covalent interactions |
| Cc1nn(-c2ccc(Cl)cc2)c2c1C(c1ccc([N+](=O)[O-])cc1)C(C#N)=C(N)O2 (stereo not drawn) [Compound 23, 6-Amino-1-(4-chlorophenyl)-4-(4-nitrophenyl)-3-methyl-1,4-dihydropyrano[2,3-c]pyrazole-5-carbonitrile] | 0.64 | 113 ± 8.6 | 9.5 ± 0.51 | – |
| Cc1nn(-c2ccc(Cl)cc2)c2c1C(c1ccc(-c3ccccc3)cc1)C(C#N)=C(N)O2 (stereo not drawn) [Compound 24, 4-([1,1′-Biphenyl]-4-yl)-6-amino-1-(4-chlorophenyl)-3-methyl-1,4-dihydropyrano[2,3-c]pyrazole-5-carbonitrile] | 0.54 | 60.7 ± 4.6 | 39.8 ± 2.2 | – |
| Cc1nn(-c2ccc(Cl)cc2)c2c1C(c1ccc(F)cc1F)C(C#N)=C(N)O2 (stereo not drawn) [Compound 25, 6-Amino-1-(4-chlorophenyl)-4-(2,4-difluorophenyl)-3-methyl-1,4-dihydropyrano[2,3-c]pyrazole-5-carbonitrile] | 0.52 | 47.6 ± 3.6 | 192 ± 9.8 | – |
| Cc1nn(-c2ccc(Cl)cc2)c2c1C(c1cccc(Cl)c1Cl)C(C#N)=C(N)O2 (stereo not drawn) [Compound 26, 6-Amino-1-(4-chlorophenyl)-4-(2,3-dichlorophenyl)-3-methyl-1,4-dihydropyrano[2,3-c]pyrazole-5-carbonitrile] | – | 34.8 ± 2.7 | – | – |
| Cc1nn(-c2ccc(Cl)cc2)c2c1C(c1ccc(Cl)cc1Cl)C(C#N)=C(N)O2 (stereo not drawn) [Compound 27, 6-Amino-1-(4-chlorophenyl)-4-(2,4-dichlorophenyl)-3-methyl-1,4-dihydropyrano[2,3-c]pyrazole-5-carbonitrile] | 0.98 | > 60 | – | SARS-CoV-2 Antiviral Assay (%) inhibition of viral replication (SARS-CoV-2): 91.23 ± 0.25%; IC50 (Vero E6 cells): 62 ± 4.7 µM; Mode of binding from kinetic analysis (SARS-CoV-2 M^pro): reversibly and non-competitively with non-covalent interactions; Solubility note (PBS solubility screening): Moderate aqueous solubility; solubility (PBS solubility screening): 22.4 µM (≈ 9.67 µg/mL); Metabolic rate [1]: intermediate clearance rate; microsomal CLint [1]: 54.6 µL/min/mg; half-life ([1]; Intrinsic half-life (t1/2)): > 2 h; half-life ([1]; Mean t1/2): 2.23 h; Serum level of IL-6 (IL-6): 64 pg/mL; Serum level of TNF-α (TNF-α): 385 pg/mL |
| Cc1nn(-c2ccc(Cl)cc2)c2c1C(c1cc(Cl)ccc1Cl)C(C#N)=C(N)O2 (stereo not drawn) [Compound 28, 6-Amino-1-(4-chlorophenyl)-4-(2,5-dichlorophenyl)-3-methyl-1,4-dihydropyrano[2,3-c]pyrazole-5-carbonitrile] | – | 131 ± 10 | – | – |
| Cc1nn(-c2ccc(Cl)cc2)c2c1C(c1c(Cl)cccc1Cl)C(C#N)=C(N)O2 (stereo not drawn) [Compound 29, 6-Amino-1-(4-chlorophenyl)-4-(2,6-dichlorophenyl)-3-methyl-1,4-dihydropyrano[2,3-c]pyrazole-5-carbonitrile] | 0.50 | 63.3 ± 4.8 | 44.6 | – |
| Cc1nn(-c2ccc(Cl)cc2)c2c1C(c1ccc(Cl)c(Cl)c1)C(C#N)=C(N)O2 (stereo not drawn) [Compound 30, 6-Amino-1-(4-chlorophenyl)-4-(3,4-dichlorophenyl)-3-methyl-1,4-dihydropyrano[2,3-c]pyrazole-5-carbonitrile] | 0.30 | 66.5 ± 5.1 | – | SARS-CoV-2 Antiviral Assay (%) inhibition of viral replication (SARS-CoV-2): 27.84 ± 0.14% |
| CCOc1ccc(C2C(C#N)=C(N)Oc3c2c(C)nn3-c2ccc(Cl)cc2)cc1 (stereo not drawn) [Compound 31, 6-Amino-1-(4-chlorophenyl)-4-(4-ethoxyphenyl)-3-methyl-1,4-dihydropyrano[2,3-c]pyrazole-5-carbonitrile] | 0.81 | 18.1 ± 1.4 | 4.6 ± 0.25 | – |
| COc1cc(C2C(C#N)=C(N)Oc3c2c(C)nn3-c2ccc(Cl)cc2)ccc1O (stereo not drawn) [Compound 32, 6-Amino-1-(4-chlorophenyl)-4-(4-hydroxy-3-methoxyphenyl)-3-methyl-1,4-dihydropyrano[2,3-c]pyrazole-5-carbonitrile] | – | 45.7 ± 3.5 | – | – |
| COc1cc(C2C(C#N)=C(N)Oc3c2c(C)nn3-c2ccc(Cl)cc2)cc(OC)c1OC (stereo not drawn) [Compound 33, 6-Amino-1-(4-chlorophenyl)-4-(3,4,5-trimethoxyphenyl)-3-methyl-1,4-dihydropyrano[2,3-c]pyrazole-5-carbonitrile] | 0.83 | 86.2 ± 6.6 | 22.1 ± 1.1 | – |
| CC(C)NCC(O)COc1cccc2ccccc12 (stereo not drawn) [Propranolol, reference compound] | – | – | – | half-life ([1]; Mean t1/2): 2.4 h |
| CCC(CC)COC(=O)[C@H](C)N[P@](=O)(OC[C@H]1O[C@@](C#N)(c2ccc3c(N)ncnn23)[C@H](O)[C@@H]1O)Oc1ccccc1 [Remdesivir, reference compound] | – | 61.8 ± 4.7 | – | Cytotoxicity to Vero E6 cells (Vero E6 cells; at 60 μM): no cytotoxicity |
| CO[C@H]1/C=C/O[C@@]2(C)Oc3c(C)c(O)c4c(O)c(c(/C=N/N5CCN(C)CC5)c(O)c4c3C2=O)NC(=O)/C(C)=C\C=C\[C@H](C)[C@H](O)[C@@H](C)[C@@H](O)[C@@H](C)[C@H](OC(C)=O)[C@@H]1C [Rifampicin, reference compound] | – | – | – | Solubility note (PBS solubility screening): Reference with good solubility; solubility (PBS solubility screening): 179 µM (≈ 148 µg/mL) |
